Reference: US12150927B2, “Use of cannabidiolic acid in the treatment of autism spectrum disorder and associated disorders” (GW Research Limited, priority 2016, dated 2024)

Legend:
Assay type in all cases: in vivo
Ube3am-/p+ (AS) mice [1] = test: Clasping test, mouse model of Angelman syndrome; details: chronic treatment (30 days) CBDA 20 mg/kg i.p., 10 weeks of age, vs AS vehicle, FIG. 12
Procedure: (§1) Heterozygous mice with maternal deficiency of Ube3A (Ube3am−/p+) and wild type (Ube3am+/p+) were purchased from The Jackson Laboratory (Jackson code: B6.129S7-Ube3a tm1Alb/J) and maintained in a C57BL/6 background.
(§2) Drugs were dissolved in 1:1:18 ethanol:cremophor:0.9% saline, for intraperitoneal (i.p.) administration. […] CBDA was administered at 20 mg/kg.
Clasping: The clasping test assesses ataxia in mice. Mice were suspended by the base of the tail and their behaviours were recorded for 30 seconds. The time for which the mice clasped their hind limbs was recorded. The time was then scored as follows: 4, 15-30 s, 3, 10-15 s, 2, 5-10 s, 1, 0-5 s and 0, 0 s

MeCP2 KO mice [2] = test: Symptom scoring, mouse model of Rett syndrome; details: chronic CBDA 2 and 20 mg/kg i.p., FIG. 7-9
Procedure: (§3) CBDA was administered daily at the dose of 2 or 20 mg/kg i.p. starting from PND 28 and the following signs were scored every other day: hindlimb clasping (indication of motor imbalance), tremor, gait (measure of coordination), breathing, mobility and general condition.
(§4) The CBDA was dissolved in ethanol, cremophor and saline (1:1:18). Starting from PND 28, mice received a daily intraperitoneal injection of CBDA (or vehicle) at the dose of 2 or 20 mg/kg. Animals were then scored every other day to evaluate the effect of CBDA treatment on motor symptoms (hindlimb clasping, gait, mobility) as well as neurological signs and general conditions (breathing abnormalities, tremors and general condition) present in MeCP2 knockout (KO) mice.
Each of the six symptoms was scored from 0 to 2 (0 corresponds to the symptom being absent or the same as in the wild type (WT) animal; 1 when the symptom was present; 2 when the symptom was severe).
Mobility: the mouse is observed when placed on bench, then when handled gently. 0=as WT. 1=reduced movement when compared with WT: extended freezing period when first placed on bench and longer periods spent immobile. 2=no spontaneous movement when placed on the bench; mouse can move in response to a gentle prod or a food pellet placed nearby.
Gait: 0=as WT. […]

Ube3am-/p+ (AS) mice [3] = test: Rotarod test, mouse model of Angelman syndrome; details: chronic treatment (30 days) CBDA 20 mg/kg i.p., 10 weeks, vs AS vehicle, FIG. 13
Procedure: as §1, §2
Rotarod: The rotarod test assesses balance and motor coordination of mice. Mice have been measured for the time (in seconds) of equilibrium before falling on a rotary cylinder by a magnet that, activated from the fall of the mouse on the plate, allows to record the time of permanence on the cylinder. […] The animals were analysed by 2 separate tests at 1-h interval in the same day.

Fmr1 KO mice = test: Novel object recognition task, mouse model of fragile X syndrome
Procedure: Fmr1 KO mice and wild type mice were obtained and housed four per cage in a temperature of 21° C.±1° C. and humidity of 55%±10% controlled environment. Food and water were available ad libitum. All experiments were performed during the light phase of a 12 hour light/dark cycle (08:00 to 20:00). Animals were handled for one week before the start of experiments. All behavioural tests were performed by researchers blind to the different experimental groups.
On day one mice were habituated for 10 minutes to the empty V-maze in which the task was to be performed. On the second day the mice went back to the maze for 10 minutes which contained two identical objects at the end of each corridor in the V-maze.
The following day the mice were placed again in the same maze for a further 10 minutes but one of the familiar objects was replaced for a novel object. The total time spent exploring the novel and familiar object was recorded. A discrimination index was calculated as the difference between the time spent exploring the novel and familiar object divided by the total time exploring the two objects. A high discrimination index (0.3-0.5) is considered to reflect memory retention for the familiar object.
Adult mice […] were treated either acutely with one dose of 20 mg/kg CBDA on PND 21 for 7 consecutive days. Mice were evaluated in the novel object recognition task after the first and sixth day of CBDA administration.

MeCP2 KO mice [4] = test: Body weight gain, mouse model of Rett syndrome; details: CBDA 2 and 20 mg/kg i.p. daily, PND 28-66, FIG. 5
Procedure: as §3, §4

[5] = test system: Fmr1 KO and WT mice (PND21); test: Susceptibility to audiogenic seizures
Procedure: This trait was evaluated in PND21 mice after acute administration of the compounds or its vehicle, 30 min before starting the procedure. To measure audiogenic seizure sensitivity mice were placed individually into a novel environment, a glass cylinder (40 cm high, 16 cm diameter) and allowed to explore for 1 min. Next, a bell (100 dB) was rung for 30 see and seizure activity scored according to the following scale: no response, 0; wild running, 1; clonic seizure, 2; tonic seizure, 3; status epilepticus/respiratory arrest/death, 4.
On postnatal day 21 (PND21) WT and Fmr1 KO mice were injected with CBDA (20 mg/kg) or vehicle, 30 min before exposure to a bell ring (100 dB). Mice exposed to this noise for 30 see ceased from their normal exploratory behaviour and reacted with gradually to wild-running, clonic seizure, tonic seizure or death. The maximum response was annotated for each mouse as detailed in Table 2 below. A score was calculated according to the severity of the symptoms as explained in the Methods section.

[6] = FXS (Fmr1 KO) mice PND21, n = 5, CBDA 20 mg/kg acute (30 min)
[7] = WT mice PND21, n = 6, CBDA 20 mg/kg acute (30 min)

C=C(C)[C@@H]1CCC(C)=C[C@H]1c1c(O)cc(CCCCC)c(C(=O)O)c1O [CBDA, Cannabidiolic acid]
clasping duration (Ube3am-/p+ (AS) mice [1]): significantly reduced clasping duration
total symptom score (tremor, breathing, hindlimb clasping, gait, general condition, mobility) (MeCP2 KO mice [2]): partially improve these symptoms and decrease the total symptom score, however these data were not significant
latency to fall (rotarod) (Ube3am-/p+ (AS) mice [3]): significantly reduced latency to fall
discrimination index level (Fmr1 KO mice; Fmr1 KO mice treated with CBDA over 7 days): 0.32
discrimination index (Fmr1 KO mice; acute treatment, CBDA 20 mg/kg, Fmr1 KO mice vs KO vehicle, FIG. 3): increase the discrimination index slightly over that of the knockout mice administered vehicle, however this was not significant
discrimination index (effect vs vehicle) (Fmr1 KO mice; chronic treatment, once daily for 7 days, CBDA 20 mg/kg, Fmr1 KO mice, FIG. 4): statistically significant increase in the discrimination index
body weight gain (MeCP2 KO mice [4]): did not prevent the reduction in body weight
number of mice with maximum response: Clonic seizure [5, 6]: 0
number of mice with maximum response: Death [5, 6]: 0
number of mice with maximum response: No response [5, 6]: 2
number of mice with maximum response: Tonic seizure [5, 6]: 1
number of mice with maximum response: Wild running [5, 6]: 2
seizure severity ([5]; FXS mice, CBDA 20 mg/kg, 30 min before 100 dB bell, vs vehicle): either no seizures or seizures of lower severity
number of mice with maximum response: Clonic seizure [5, 7]: 0
number of mice with maximum response: Death [5, 7]: 0
number of mice with maximum response: No response [5, 7]: 6
number of mice with maximum response: Tonic seizure [5, 7]: 0
number of mice with maximum response: Wild running [5, 7]: 0
